Test system: Human Dermal Fibroblasts from Autistic Patients (ASD fibroblasts)
Assay: Rescue of ASD fibroblasts stressed by addition of L-buthionine-(S,R)-sulfoximine (BSO), Calcein AM viability read-out
Format: cell-based
Conditions: Fibroblast, 1 mM final BSO, 48 hours, Calcein AM fluorescence, viability relative to non-BSO treated fibroblasts (100%), tested three times, read-out: EC50, protection against ASD (rescue of BSO-stressed ASD fibroblasts)
Method: A screen was performed to identify compounds effective for the amelioration of ASD. Test samples, and solvent controls were tested for their ability to rescue ASD fibroblasts stressed by addition of L-buthionine-(S,R)-sulfoximine (BSO).
MEM (a medium enriched in amino acids and vitamins, catalog no. Gibco 11965) and Fetal Calf Serum were obtained from Invitrogen. Basic fibroblast growth factor and epidermal growth factor were purchased from PeproTech. Penicillin-streptomycin-glutamine mix, L-buthionine (S,R)-sulfoximine, and insulin from bovine pancreas were purchased from Sigma. Calcein AM was purchased from Molecular Probes. Cell culture medium (ATP) was made by combining 75 ml Fetal Calf Serum, 100 U/ml penicillin, 100 μg/ml streptomycin, 2 mM glutamine, 10 ng/ml EGF, and 10 ng/ml bFGF; MEM EBS was added to make the volume up to 500 ml. A 10 mM BSO solution was prepared by dissolving 444 mg BSO in 200 ml of medium with subsequent filter-sterilization. […]
100 μl of PBS containing 1.2 μM Calcein AM were then added to each well. […] After that time the PBS was discarded, the plate gently tapped on a paper towel and fluorescence (excitation/emission wavelengths of 485 nm and 525 nm, respectively) was read on a Gemini fluorescence reader. […]
The viability of non-BSO treated fibroblasts was set as 100%, and the viability of the BSO- and compound-treated cells was calculated as relative to this value.

SMILES | EC50
CC(C)=CCC/C(C)=C/CC/C(C)=C/CCC(C)(O)CCC1=C(C)C(=O)C(C)=C(C)C1=O (centres unmarked) [2-(3-hydroxy-3,7,11,15-tetramethylhexadeca-6,10,14-trienyl)-3,5,6-trimethylcyclohexa-2,5-diene-1,4-dione] | < 150 nM
CCCCCCCCCC1=C(C)C(=O)C(C)=C(C)C1=O [2,3,5-trimethyl-6-nonylcyclohexa-2,5-diene-1,4-dione] | < 150 nM
